Test results taken from ChEMBL document CHEMBL1821675, “The selective P-TEFb inhibitor CAN508 targets angiogenesis” (Eur J Med Chem, 2011).
Calls of active or inactive are those of the source. The rule behind the calls is not given here.

How the values were obtained:
MCF7 [1] = test: Cytotoxicity against human MCF7 cells; format: functional
SNB-19 = test: Cytotoxicity against human SNB19 cells; format: functional
KM12 = test: Cytotoxicity against human KM12 cells; format: functional
A549 = test: Cytotoxicity against human A549 cells; format: functional
EKVX = test: Cytotoxicity against human EKVX cells; format: functional
NCI-H322M = test: Cytotoxicity against human NCI-H322M cells; format: functional
K562 = test: Cytotoxicity against human K562 cells; format: functional
SR = test: Cytotoxicity against human SR cells; format: functional
MDA-MB-435 = test: Cytotoxicity against human MDA-MB-435 cells; format: functional
UACC-62 = test: Cytotoxicity against human UACC62 cells; format: functional
NCI/ADR-RES = test: Cytotoxicity against human NCI/ADR-RES cells; format: functional
DU-145 [2] = test: Cytotoxicity against human DU145 cells; format: functional
CAKI-1 = test: Cytotoxicity against human Caki1 cells; format: functional
[3] = Antiproliferative activity against HMEC1 cells assessed as decrease in cell viability at >50 uM within 72 hrs by calcein AM staining-based fluorescence assay; details: human, hmec-1, 72 h
[4] = Antiangiogenic activity in VEGF-stimulated HMEC1 assessed as reduction in total length of tube at 20 uM after 16 hrs by photographic analysis; format: functional, Homo sapiens, HMEC-1; set-up: scale not given: the % may be the effect or the level left
MCF7 [5] = test: Decrease in VEGF expression in human MCF7 cells at >10 uM after 24 hrs by sandwich ELISA; format: functional, cell-based
DU-145 [6] = test: Decrease in VEGF expression in human DU145 cells at >10 uM after 24 hrs by sandwich ELISA; format: functional, cell-based
[7] = Inhibition of TNF-alpha-induced Nuclear factor-kappa-B-mediated ICAM-1 expression in human HMEC1 cells after 24 hrs by FACS analysis; format: cell-based; details: HMEC-1, 24 h
[8] = molecular target: Cyclin-dependent kinase 9 (Homo sapiens) (UniProt P50750); test: Inhibition of CDK9-catalyzed RNA polymerase 2 phosphorylation at Ser2 in human HMEC1 cells after 2 hrs by immunoblotting; format: cell-based
Cyclin-dependent kinase 9 (Homo sapiens), sequence (P50750 whole entry): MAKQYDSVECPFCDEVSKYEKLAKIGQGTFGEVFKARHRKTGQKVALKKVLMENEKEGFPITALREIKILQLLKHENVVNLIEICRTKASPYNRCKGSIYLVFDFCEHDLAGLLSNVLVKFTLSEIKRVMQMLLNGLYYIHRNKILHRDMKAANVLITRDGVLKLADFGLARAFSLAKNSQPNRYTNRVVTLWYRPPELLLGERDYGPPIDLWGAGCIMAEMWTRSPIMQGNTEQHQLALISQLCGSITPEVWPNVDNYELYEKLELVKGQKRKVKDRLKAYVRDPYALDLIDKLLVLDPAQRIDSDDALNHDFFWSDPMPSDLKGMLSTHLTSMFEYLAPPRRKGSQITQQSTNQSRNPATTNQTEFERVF

[9] = molecular target: Cyclin-dependent kinase 7 (Homo sapiens) (UniProt P50613); test: Inhibition of CDK7-catalyzed RNA polymerase 2 phosphorylation at Ser5 in human MCF7 cells at 5 to 40 uM after 2 hrs by immunoblotting; format: cell-based
[10] = Inhibition of AMPK assessed as residual activity at 10 uM by radioactivity assay in presence of 50 uM ATP
[11] = molecular target: Serine/threonine-protein kinase BRSK2 (Homo sapiens) (UniProt Q8IWQ3); test: Inhibition of BRSK2 assessed as residual activity at 10 uM by radioactivity assay in presence of 50 uM ATP
[12] = molecular target: CDK9/cyclin T1 (Homo sapiens) (UniProt O60563+P50750); test: Inhibition of CDK9/cyclin T assessed as residual activity at 10 uM by radioactivity assay in presence of 50 uM ATP; format: protein-complex assay
[13] = molecular target: Eukaryotic elongation factor 2 kinase (Homo sapiens) (UniProt O00418); test: Inhibition of EF2K assessed as residual activity at 10 uM by radioactivity assay in presence of 5 uM ATP
Eukaryotic elongation factor 2 kinase (Homo sapiens), sequence (O00418 whole entry): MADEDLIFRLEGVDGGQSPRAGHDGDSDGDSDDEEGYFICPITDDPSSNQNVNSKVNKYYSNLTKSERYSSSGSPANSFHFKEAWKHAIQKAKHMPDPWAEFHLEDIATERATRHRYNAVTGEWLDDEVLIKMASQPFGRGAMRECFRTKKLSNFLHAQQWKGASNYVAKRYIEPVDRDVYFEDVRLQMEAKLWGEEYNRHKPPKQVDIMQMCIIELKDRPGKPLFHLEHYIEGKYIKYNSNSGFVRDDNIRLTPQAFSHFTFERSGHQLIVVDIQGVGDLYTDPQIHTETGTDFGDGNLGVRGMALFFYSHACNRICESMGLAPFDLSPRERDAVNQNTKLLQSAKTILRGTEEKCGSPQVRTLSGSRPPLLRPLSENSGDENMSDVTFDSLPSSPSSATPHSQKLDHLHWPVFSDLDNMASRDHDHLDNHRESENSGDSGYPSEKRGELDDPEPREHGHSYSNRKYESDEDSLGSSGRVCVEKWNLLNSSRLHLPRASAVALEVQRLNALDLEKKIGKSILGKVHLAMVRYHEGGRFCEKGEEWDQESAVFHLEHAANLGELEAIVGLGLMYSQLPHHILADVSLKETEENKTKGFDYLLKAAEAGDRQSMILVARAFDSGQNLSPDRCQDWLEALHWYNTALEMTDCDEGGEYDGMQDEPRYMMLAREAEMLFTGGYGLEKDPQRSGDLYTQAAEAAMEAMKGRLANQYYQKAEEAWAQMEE

[14] = molecular target: Fibroblast growth factor receptor 1 (Homo sapiens) (UniProt P11362); test: Inhibition of FGF-R1 assessed as residual activity at 10 uM by radioactivity assay in presence of 20 uM ATP
[15] = molecular target: Mitogen-activated protein kinase kinase kinase kinase 2 (Homo sapiens) (UniProt Q12851); test: Inhibition of GCK assessed as residual activity at 10 uM by radioactivity assay in presence of 20 uM ATP
Mitogen-activated protein kinase kinase kinase kinase 2 (Homo sapiens), sequence (Q12851 whole entry): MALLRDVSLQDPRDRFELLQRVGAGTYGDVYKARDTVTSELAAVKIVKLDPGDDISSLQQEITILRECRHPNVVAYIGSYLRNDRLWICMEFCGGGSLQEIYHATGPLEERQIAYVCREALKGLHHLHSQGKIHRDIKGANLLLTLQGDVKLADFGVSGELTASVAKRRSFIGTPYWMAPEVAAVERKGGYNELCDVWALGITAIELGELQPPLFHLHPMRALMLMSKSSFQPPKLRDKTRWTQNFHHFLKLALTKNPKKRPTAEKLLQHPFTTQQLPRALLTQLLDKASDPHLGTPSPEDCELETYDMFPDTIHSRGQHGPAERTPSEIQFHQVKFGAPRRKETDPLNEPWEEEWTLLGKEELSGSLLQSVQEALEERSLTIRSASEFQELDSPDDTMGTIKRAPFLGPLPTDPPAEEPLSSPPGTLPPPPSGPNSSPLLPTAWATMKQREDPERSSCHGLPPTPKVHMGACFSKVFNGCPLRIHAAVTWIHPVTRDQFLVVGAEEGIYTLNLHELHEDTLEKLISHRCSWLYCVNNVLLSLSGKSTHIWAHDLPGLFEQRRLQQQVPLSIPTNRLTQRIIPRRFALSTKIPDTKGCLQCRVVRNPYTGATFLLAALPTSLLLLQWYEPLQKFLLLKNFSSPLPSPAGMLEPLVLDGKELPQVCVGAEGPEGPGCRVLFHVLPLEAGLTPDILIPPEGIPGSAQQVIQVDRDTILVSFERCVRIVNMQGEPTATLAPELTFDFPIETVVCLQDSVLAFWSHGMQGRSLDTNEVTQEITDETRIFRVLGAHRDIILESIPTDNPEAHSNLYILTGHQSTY

[16] = molecular target: Homeodomain-interacting protein kinase 3 (Homo sapiens) (UniProt Q9H422); test: Inhibition of HIPK3 assessed as residual activity at 10 uM by radioactivity assay in presence of 20 uM ATP
[17] = molecular target: Serine/threonine-protein kinase Chk1 (Homo sapiens) (UniProt O14757); test: Inhibition of CHK1 assessed as residual activity at 10 uM by radioactivity assay in presence of 20 uM ATP
[18] = molecular target: Serine/threonine-protein kinase Chk2 (Homo sapiens) (UniProt O96017); test: Inhibition of CHK2 assessed as residual activity at 10 uM by radioactivity assay in presence of 20 uM ATP
Serine/threonine-protein kinase Chk2 (Homo sapiens), sequence (O96017 whole entry): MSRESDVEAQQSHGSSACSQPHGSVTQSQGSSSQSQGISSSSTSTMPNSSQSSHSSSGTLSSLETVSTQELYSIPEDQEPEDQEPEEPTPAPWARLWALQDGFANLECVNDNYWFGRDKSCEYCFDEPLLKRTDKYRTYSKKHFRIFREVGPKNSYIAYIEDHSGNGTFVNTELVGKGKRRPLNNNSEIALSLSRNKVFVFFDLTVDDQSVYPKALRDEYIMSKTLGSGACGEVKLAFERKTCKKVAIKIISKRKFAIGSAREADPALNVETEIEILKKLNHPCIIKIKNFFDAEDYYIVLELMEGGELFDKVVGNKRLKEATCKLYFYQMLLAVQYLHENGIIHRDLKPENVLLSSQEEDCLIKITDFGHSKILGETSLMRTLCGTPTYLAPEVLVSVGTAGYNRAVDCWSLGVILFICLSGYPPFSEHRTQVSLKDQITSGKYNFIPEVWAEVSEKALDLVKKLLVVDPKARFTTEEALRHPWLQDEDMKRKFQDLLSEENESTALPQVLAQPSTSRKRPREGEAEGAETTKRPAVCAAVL

[19] = molecular target: Inhibitor of nuclear factor kappa-B kinase subunit beta (Homo sapiens) (UniProt O14920); test: Inhibition of IKK-beta assessed as residual activity at 10 uM by radioactivity assay in presence of 5 uM ATP
[20] = molecular target: Tyrosine-protein kinase JAK2 (Homo sapiens) (UniProt O60674); test: Inhibition of JAK2 assessed as residual activity at 10 uM by radioactivity assay in presence of 5 uM ATP
Tyrosine-protein kinase JAK2 (Homo sapiens), sequence (O60674 whole entry): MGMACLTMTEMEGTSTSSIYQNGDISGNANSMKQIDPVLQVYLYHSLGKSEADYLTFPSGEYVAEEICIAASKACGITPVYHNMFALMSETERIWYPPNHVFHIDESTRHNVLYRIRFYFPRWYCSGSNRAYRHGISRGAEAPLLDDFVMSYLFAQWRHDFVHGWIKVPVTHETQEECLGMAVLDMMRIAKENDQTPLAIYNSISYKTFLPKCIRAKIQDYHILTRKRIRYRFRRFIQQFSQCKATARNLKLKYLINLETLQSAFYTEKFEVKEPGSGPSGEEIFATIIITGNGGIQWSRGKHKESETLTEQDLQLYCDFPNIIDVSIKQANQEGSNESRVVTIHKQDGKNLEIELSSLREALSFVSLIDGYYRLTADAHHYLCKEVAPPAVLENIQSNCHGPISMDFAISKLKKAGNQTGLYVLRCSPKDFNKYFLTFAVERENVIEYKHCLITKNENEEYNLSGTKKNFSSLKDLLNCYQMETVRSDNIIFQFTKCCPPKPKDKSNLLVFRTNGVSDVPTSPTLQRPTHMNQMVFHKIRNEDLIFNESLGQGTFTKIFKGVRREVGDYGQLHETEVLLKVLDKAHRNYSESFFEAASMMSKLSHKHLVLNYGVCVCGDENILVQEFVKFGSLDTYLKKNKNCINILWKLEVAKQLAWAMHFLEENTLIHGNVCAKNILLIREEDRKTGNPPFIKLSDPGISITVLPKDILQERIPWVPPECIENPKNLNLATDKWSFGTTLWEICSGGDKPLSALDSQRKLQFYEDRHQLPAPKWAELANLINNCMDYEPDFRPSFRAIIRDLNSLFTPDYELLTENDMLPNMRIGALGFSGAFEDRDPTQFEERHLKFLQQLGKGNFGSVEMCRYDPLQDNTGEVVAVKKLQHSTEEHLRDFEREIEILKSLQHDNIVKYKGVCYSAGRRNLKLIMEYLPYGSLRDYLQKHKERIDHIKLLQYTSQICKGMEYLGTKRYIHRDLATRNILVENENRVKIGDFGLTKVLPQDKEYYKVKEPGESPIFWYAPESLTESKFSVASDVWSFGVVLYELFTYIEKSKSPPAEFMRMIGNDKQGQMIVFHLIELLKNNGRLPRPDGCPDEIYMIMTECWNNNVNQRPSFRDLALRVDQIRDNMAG

[21] = molecular target: Mitogen-activated protein kinase 8 (Homo sapiens) (UniProt P45983); test: Inhibition of JNK1A1 assessed as residual activity at 10 uM by radioactivity assay in presence of 20 uM ATP
[22] = molecular target: MAP/microtubule affinity-regulating kinase 4 (Homo sapiens) (UniProt Q96L34); test: Inhibition of MARK4 assessed as residual activity at 10 uM by radioactivity assay in presence of 50 uM ATP
MAP/microtubule affinity-regulating kinase 4 (Homo sapiens), sequence (Q96L34 whole entry): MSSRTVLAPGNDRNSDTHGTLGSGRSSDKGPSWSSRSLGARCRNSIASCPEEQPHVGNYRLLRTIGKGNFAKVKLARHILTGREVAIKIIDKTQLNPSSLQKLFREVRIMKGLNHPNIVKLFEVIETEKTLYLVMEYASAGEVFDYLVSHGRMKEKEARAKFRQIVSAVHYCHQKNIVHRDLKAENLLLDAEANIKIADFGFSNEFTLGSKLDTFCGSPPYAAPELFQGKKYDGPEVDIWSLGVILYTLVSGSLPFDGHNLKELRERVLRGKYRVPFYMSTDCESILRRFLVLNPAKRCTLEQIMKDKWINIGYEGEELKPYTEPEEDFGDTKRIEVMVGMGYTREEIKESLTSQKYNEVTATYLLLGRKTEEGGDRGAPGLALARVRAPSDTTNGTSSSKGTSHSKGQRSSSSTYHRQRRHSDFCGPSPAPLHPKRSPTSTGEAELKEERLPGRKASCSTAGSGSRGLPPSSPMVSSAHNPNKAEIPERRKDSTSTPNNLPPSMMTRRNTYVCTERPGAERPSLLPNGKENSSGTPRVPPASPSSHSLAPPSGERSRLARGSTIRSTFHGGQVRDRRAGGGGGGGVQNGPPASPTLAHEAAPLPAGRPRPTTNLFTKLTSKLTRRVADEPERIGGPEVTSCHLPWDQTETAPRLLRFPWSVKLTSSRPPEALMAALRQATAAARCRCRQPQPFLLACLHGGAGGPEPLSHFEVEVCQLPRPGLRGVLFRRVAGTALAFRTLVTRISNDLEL

[23] = molecular target: Mitogen-activated protein kinase kinase kinase 9 (Homo sapiens) (UniProt P80192); test: Inhibition of MLK1 assessed as residual activity at 10 uM by radioactivity assay in presence of 20 uM ATP
[24] = molecular target: MAP kinase-interacting serine/threonine-protein kinase 2 (Homo sapiens) (UniProt Q9HBH9); test: Inhibition of MNK2alpha assessed as residual activity at 10 uM by radioactivity assay in presence of 50 uM ATP
[25] = molecular target: Serine/threonine-protein kinase PAK 2 (Homo sapiens) (UniProt Q13177); test: Inhibition of PAK2 assessed as residual activity at 10 uM by radioactivity assay in presence of 20 uM ATP
[26] = molecular target: Serine/threonine-protein kinase PAK 5 (Homo sapiens) (UniProt Q9P286); test: Inhibition of PAK5 assessed as residual activity at 10 uM by radioactivity assay in presence of 20 uM ATP
Serine/threonine-protein kinase PAK 5 (Homo sapiens), sequence (Q9P286 whole entry, looked up): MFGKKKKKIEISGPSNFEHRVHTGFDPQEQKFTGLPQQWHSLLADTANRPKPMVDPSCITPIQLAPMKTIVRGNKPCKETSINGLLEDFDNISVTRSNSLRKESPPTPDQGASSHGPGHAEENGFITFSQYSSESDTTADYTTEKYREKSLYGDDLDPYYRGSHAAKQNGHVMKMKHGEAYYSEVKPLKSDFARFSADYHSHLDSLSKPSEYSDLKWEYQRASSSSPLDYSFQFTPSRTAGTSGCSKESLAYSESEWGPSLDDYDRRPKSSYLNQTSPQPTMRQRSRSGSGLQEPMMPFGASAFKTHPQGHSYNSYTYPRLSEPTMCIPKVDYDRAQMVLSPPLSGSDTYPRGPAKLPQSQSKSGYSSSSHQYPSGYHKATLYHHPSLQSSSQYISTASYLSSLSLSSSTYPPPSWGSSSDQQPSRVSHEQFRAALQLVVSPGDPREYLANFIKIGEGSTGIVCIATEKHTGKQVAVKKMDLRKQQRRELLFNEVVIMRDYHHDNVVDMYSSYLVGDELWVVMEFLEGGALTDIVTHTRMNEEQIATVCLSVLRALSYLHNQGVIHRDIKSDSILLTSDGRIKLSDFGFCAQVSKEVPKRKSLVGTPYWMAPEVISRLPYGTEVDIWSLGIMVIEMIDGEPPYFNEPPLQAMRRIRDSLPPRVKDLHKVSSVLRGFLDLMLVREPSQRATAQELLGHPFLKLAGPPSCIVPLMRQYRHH

[27] = molecular target: Serine/threonine-protein kinase D1 (Homo sapiens) (UniProt Q15139); test: Inhibition of PKD1 assessed as residual activity at 10 uM by radioactivity assay in presence of 50 uM ATP
[28] = molecular target: Serine/threonine-protein kinase PLK1 (Homo sapiens) (UniProt P53350); test: Inhibition of PLK1 assessed as residual activity at 10 uM by radioactivity assay in presence of 5 uM ATP
[29] = molecular target: Serine/threonine-protein kinase N2 (Homo sapiens) (UniProt Q16513); test: Inhibition of PRK2 assessed as residual activity at 10 uM by radioactivity assay in presence of 5 uM ATP
[30] = molecular target: Proto-oncogene tyrosine-protein kinase Src (Homo sapiens) (UniProt P12931); test: Inhibition of Src assessed as residual activity at 10 uM by radioactivity assay in presence of 50 uM ATP

## Nc1n[nH]c(N)c1/N=N/c1ccc(O)cc1
MCF7 [1]
  GI50: 23.5 µM
SNB-19
  GI50: 29.9 µM
KM12
  GI50: 17.1 µM
A549
  GI50: 22.5 µM
EKVX
  GI50: 22 µM
NCI-H322M
  GI50: 25.1 µM
K562
  GI50: 9.2 µM
SR
  GI50: 10.3 µM
MDA-MB-435
  GI50: 17.1 µM
UACC-62
  GI50: 11 µM
NCI/ADR-RES
  GI50: 22.5 µM
DU-145 [2]
  GI50: 17 µM
CAKI-1
  GI50: 14.8 µM
[3]
  Activity: Non-toxic
[4]
  Activity: 20%
MCF7 [5]
  Activity: Active
DU-145 [6]
  Activity: Active
[7]
  IC50: 20 µM
[8]
  inhibition: Dose-dependent effect
[9]
  inhibition: Active
[10]
  Activity: 82%
[11]
  Activity: 62%
[12]
  Activity: 12%
[13]
  Activity: 106%
[14]
  Activity: 68%
[15]
  Activity: 20%
[16]
  Activity: 84%
[17]
  Activity: 98%
[18]
  Activity: 57%
[19]
  Activity: 31%
[20]
  Activity: 19%
[21]
  Activity: 87%
[22]
  Activity: 72%
[23]
  Activity: 39%
[24]
  Activity: 39%
[25]
  Activity: 91%
[26]
  Activity: 88%
[27]
  Activity: 67%
[28]
  Activity: 77%
[29]
  Activity: 30%
[30]
  Activity: 62%
